In US6924304B2, “Cell proliferation inhibitors” (Abbott Laboratories, priority 1999, dated 2005):
Where a name gives a salt, the structure may show the parent alone.

Columns and labels:
[1] = system: human lung large cell carcinoma, MDR negative (NCI-H460) cells; experiment: 48-hour cellular proliferation assay (sulforhodamine staining), NCI-H460 cells; assay type: cell-based; settings: Homo sapiens, 10^−4 M compound, read-out: NCI-460 % inhibition at 10^−4 M
Description: (§1) Compounds of this invention were tested in a 48-hour cellular proliferation assay which uses human colon adenocarcinoma, MDR positive (HCT-15) cells, and human lung large cell carcinoma, MDR negative (NCI-H460) cells, in the 96-well microtitre format described in Skehan P., et al. New Colorimetric Cytotoxicity Assay for Anticancer Drug Screening. 1990, J. Natl. Cancer Inst. 82:1107-1112, hereby incorporated by reference. Briefly, the wells of a microtitre plate were charged sequentially with cultured cells and compounds of the invention (1.0×10^−4 to 1.0×10^−11 M in 10% DMSO prepared by dissolving compounds of the invention in DMSO and adding 11 μL of the DMSO solution to 100 μL of culture medium for a final DMSO concentration of 10%). Two of the following controls were also present in each microtitre plate: a solvent (DMSO) control without drug that yielded a 0% inhibition level and a trichloroacetic acid-treated well that yielded a 100% inhibition level. The cells were grown in culture (37° C., 5% CO2 atmosphere) for 48 hours then fixed by the addition of trichloroacetic acid. The wells were stained with sulforhodamine, washed with 1% acetic acid, and treated with 0.01 M tris buffer (100 μL) to solubilize the adherent dye. The absorbance of the dye solution was measured with a Molecular Devices SpectraMax340 plate reader. The percent inhibition values were obtained by calculating the proportional response of the experimental values to the absorbance values of the controls.

[2] = system: human colon adenocarcinoma, MDR positive (HCT-15) cells; experiment: 48-hour cellular proliferation assay (sulforhodamine staining), HCT-15 cells; assay type: cell-based; settings: Homo sapiens, 10^−4 M compound, HCT-15 cells (MDR positive)
Description: as §1

Compound | melting point | inhibition at 100 µM [1] | inhibition at 100 µM [2]
COc1cc(N(C(=O)CN(C)C)S(=O)(=O)c2ccc3c(ccn3C)c2)cc(OC)c1OC (as salt: salt) [Example 67, N-((dimethylamino)acetyl)-1-methyl-N-(3,4,5-trimethoxyphenyl)-1H-indole-5-sulfonamide] | 200 to 203 °C |  | 
COc1ccc(OS(=O)(=O)c2cc(OC)c(OC)c(OC)c2)cc1 [Example 47, 4-methoxyphenyl 3,4,5-trimethoxybenzenesulfonate] |  | 99.9% | 100%
COc1cc(N(C(=O)[C@@H](N)Cc2cnc[nH]2)S(=O)(=O)c2ccc3c(ccn3C)c2)cc(OC)c1OC [Example 76, N-((2S)-2-amino-3-(1H-imidazol-5-yl)propanoyl)-1-methyl-N-(3,4,5-trimethoxyphenyl)-1H-indole-5-sulfonamide] | 175 to 177 °C |  | 
COc1ccc(CSc2cc(OC)c(OC)c(OC)c2)cc1 [Example 85, 1,2,3-trimethoxy-5-((4-methoxybenzyl)sulfanyl)benzene] | 65 to 67 °C | 99.6% | 99.8%
COc1ccc(C[S+]([O-])c2cc(OC)c(OC)c(OC)c2)cc1 (stereo not shown) [Example 86, 1,2,3-trimethoxy-5-((4-methoxybenzyl)sulfinyl)benzene] | 103 to 105 °C | 96.5% | 99.4%
COc1ccc(CS(=O)(=O)c2cc(OC)c(OC)c(OC)c2)cc1 [Example 87, 1,2,3-trimethoxy-5-((4-methoxybenzyl)sulfonyl)benzene] | 95 to 97 °C | 99.6% | 99.9%
COc1ccc(C(C)(C)S(=O)(=O)c2cc(OC)c(OC)c(OC)c2)cc1 [Example 88, 1,2,3-trimethoxy-5-((1-(4-methoxyphenyl)-1-methylethyl)sulfonyl)benzene] |  | 58.4% | 85.5%
COc1ccc(CSc2cc(OC)c(OC)c(OC)c2)cc1N [Example 89, 2-methoxy-5-(((3,4,5-trimethoxyphenyl)sulfanyl)methyl)aniline] |  | 99.9% | 99.9%
COc1ccc(C[S+]([O-])c2cc(OC)c(OC)c(OC)c2)cc1N (stereo not shown) [Example 90, 2-methoxy-5-(((3,4,5-trimethoxyphenyl)sulfinyl)methyl)aniline] |  | 99.8% | 99.5%
COc1ccc(CS(=O)(=O)c2cc(OC)c(OC)c(OC)c2)cc1N [Example 91, 2-methoxy-5-(((3,4,5-trimethoxyphenyl)sulfonyl)methyl)aniline] |  | 99.8% | 95%
COc1ccc(C(C)(C)S(=O)(=O)c2cc(OC)c(OC)c(OC)c2)cc1N [Example 92, 2-methoxy-5-(1-methyl-1-((3,4,5-trimethoxyphenyl)sulfonyl)ethyl)aniline] |  | 9.1% | 67.1%
COc1ccc(SCc2cc(OC)c(OC)c(OC)c2)cc1 [Example 93, 1,2,3-trimethoxy-5-(((4-methoxyphenyl)sulfanyl)methyl)benzene] |  | 98.6% | 99.9%
COc1ccc(S(=O)(=O)Cc2cc(OC)c(OC)c(OC)c2)cc1 [Example 94, 1,2,3-trimethoxy-5-(((4-methoxyphenyl)sulfonyl)methyl)benzene] |  | 90.1% | 97.7%
COc1ccc(S(=O)(=O)C(C)(C)c2cc(OC)c(OC)c(OC)c2)cc1 [Example 95, 1,2,3-trimethoxy-5-(1-((4-methoxyphenyl)sulfonyl)-1-methylethyl)benzene] |  | 9.1% | 84.8%
COc1ccc(S(=O)(=O)Cc2cc(OC)c(OC)c(OC)c2)cc1N [Example 96, 2-methoxy-5-((3,4,5-trimethoxybenzyl)sulfonyl)aniline] |  | 99.9% | 99.8%
